{"source": "paper PMC12064607", "about": "(Clinical Pharmacokinetics, 2025)", "key": {"[1]": {"conditions": "human, in vivo"}, "[2]": {"test_system": "BetaCoV/Belgium/GHB-03021/2020", "conditions": "cited from earlier work"}, "WA1": {"test_system": "WA1", "parameters": "method as in Pitts et al[4]", "conditions": "A549-ACE2-TMPRSS, Nucleoprotein ELISA, ref Pitts et al[4]; cited from earlier work"}, "Delta": {"test_system": "Delta", "conditions": "A549-ACE2-TMPRSS, Nucleoprotein ELISA, ref Pitts et al[4]; cited from earlier work"}, "Omicron": {"test_system": "Omicron", "conditions": "A549-ACE2-TMPRSS, Nucleoprotein ELISA, ref Pitts et al[4]; cited from earlier work"}, "Omicron/BA.2": {"test_system": "Omicron/BA.2", "parameters": "method as in Takashita et al[5]", "conditions": "Vero E6, Focus reduction, ref Takashita et al[5]; cited from earlier work"}, "clinical": {"test": "clinical", "conditions": "human, in vivo"}, "plasma protein": {"test_system": "plasma protein", "conditions": "cited from earlier work"}, "[3]": {"conditions": "plasma samples; cited from earlier work"}, "[4]": {"test_system": "nCoV-2019BetaCoV/Wuhan/WIV04/2019", "conditions": "cited from earlier work"}, "[5]": {"test_system": "BetaCoV/France/IDF0571/2020", "conditions": "cited from earlier work"}, "[6]": {"conditions": "human, in vivo; cited from earlier work"}}, "note": "Where two headings read alike, the source gives them in different places.", "data": [{"smiles": "N#C[C@@]1(c2ccc3c(N)ncnn23)O[C@H](CO)[C@@H](O)[C@H]1O", "note": "[GS-441524]", "values": [{"measurement": "Age effect on V, bootstrap median", "setting": "[1]", "result": "–1.18"}, {"measurement": "Age effect on V, final model mean", "setting": "[1]", "result": "–1.15"}, {"measurement": "V/fm, bootstrap median", "setting": "[1]", "result": 429, "unit": "L"}, {"measurement": "V/fm, final model mean", "setting": "[1]", "result": 429, "unit": "L"}, {"measurement": "eGFR effect on CL, bootstrap median", "setting": "[1]", "result": 1.23}, {"measurement": "eGFR effect on CL, final model mean", "setting": "[1]", "result": 1.12}, {"measurement": "EC50", "setting": "[2]", "result": 510, "unit": "nM"}, {"measurement": "EC50", "setting": "WA1", "result": 5.6, "unit": "µM"}, {"measurement": "EC50", "setting": "Delta", "result": 3260, "unit": "nM"}, {"measurement": "EC50", "setting": "Omicron", "result": 3150, "unit": "nM"}, {"measurement": "EC50", "setting": "Omicron/BA.2", "result": 2850, "unit": "nM"}, {"measurement": "clearance", "setting": "clinical; CL/fm, bootstrap median", "result": 267, "unit": "mL/min"}, {"measurement": "clearance", "setting": "clinical; CL/fm, final model mean", "result": 265, "unit": "mL/min"}, {"measurement": "protein binding", "setting": "plasma protein", "result": 2, "unit": "%"}, {"measurement": "stable at room temperature", "setting": "[3]", "result": 48, "unit": "h"}]}, {"smiles": "CCC(CC)COC(=O)[C@H](C)N[P@](=O)(OC[C@H]1O[C@@](C#N)(c2ccc3c(N)ncnn23)[C@H](O)[C@@H]1O)Oc1ccccc1", "note": "[Remdesivir, reference compound]", "values": [{"measurement": "V, bootstrap median", "setting": "[1]", "result": 111, "unit": "L"}, {"measurement": "EC50", "setting": "[4]", "result": 770, "unit": "nM"}, {"measurement": "EC90", "setting": "[4]", "result": 1760, "unit": "nM"}, {"measurement": "EC50", "setting": "[5]", "result": 990, "unit": "nM"}, {"measurement": "EC50", "setting": "[2]", "result": 48, "unit": "nM"}, {"measurement": "EC50", "setting": "Delta", "result": 70, "unit": "nM"}, {"measurement": "EC50", "setting": "Omicron", "result": 42, "unit": "nM"}, {"measurement": "clearance", "setting": "clinical; CL, bootstrap median", "result": 1670, "unit": "mL/min"}, {"measurement": "clearance", "setting": "clinical; iv, CL, final model mean", "result": 1600, "unit": "mL/min"}, {"measurement": "clearance", "setting": "[6]", "result": 207, "unit": "L/h"}, {"measurement": "protein binding", "setting": "plasma protein; human", "result": 97, "unit": "%"}]}]}
